Data as given in patent US20050187288A1, “Beta-lapachone and methods of treating cancer” (priority 2004, published 2005).
Read-outs that look alike come from different tables or passages of the source.

Experiments:
[1] = Binding to human plasma proteins by equilibrium dialysis; format: in vitro ADME; details: human, pooled human plasma; 2-25 μM, 37° C.; read-out: protein binding (converted)
Protocol: (§1) The plasma aliquots were incubated at 37° C. for 1 h, and then were dialyzed against PBS buffer at 37° C. for 4 h using Dianorm Equilibrium Dialysers.

human plasma proteins = assay: as above; format: in vitro ADME; details: 2-25 μM, 37° C.
Protocol: as §1

[2] = Study 4B: cardiovascular, pulmonary study in anesthetized dogs; format: in vivo
Protocol: In Study No. 4B, adult female Beagle dogs (one male in control group) were randomized into three study groups (3 animals/group) as shown in Table 17.
For measurement of cardiovascular function, a lead II ECG was obtained with subdermal needle electrodes and an ECG signal conditioner. Heart rate (HR) was measured with a pulse rate tachometer. The right femoral artery was cannulated with a catheter connected to a pressure transducer and pressure processor for recording mean, systolic and diastolic arterial blood pressure (BP). The left femoral artery was exposed by a flank incision and a probe (2.5 mm i.d.) connected to an electromagnetic flowmeter was placed around the artery for measurement of blood flow (BF). […] For measurement of pulmonary function, a 5.0 mm endotracheal tube connected to a pneumotachograph recorded integrated flow to yield a continuous recording of respiratory rate (RR). Intrapleural pressure was obtained from an esophageal balloon placed in the lower third of the esophagus. Transpulmonary pressure, the difference between thoracic (i.e. the external end of the endotracheal tube) and pleural pressure, was measured with a differential pressure transducer. Measurements of respiratory flow and transpulmonary pressure were used to compute total lung resistance (RL) and dynamic compliance (CDYN).
All parameters were measured and recorded immediately before (0 minute) and 5, 10, 30, 60, 90 and 120 minutes after start of the infusion. The mean±SEM value and the percentage relative to pretreatment values at each observation time point after dosing were calculated, and Dunnett's test was applied for comparison between vehicle control group and test substance treated group at the relative observation time interval. Differences were considered significant at p<0.05 level.

BxPC-3 = assay: cells; details: Homo sapiens
Text: (§2) Control plates received the same volume of DMSO alone.
(§3) Control plates receive the same volume of DMSO alone. […] Each “Replicate Result” represents the result of a separate experiment.

PaCa-2 = assay: cells
Text: as §2, §3

E2F1 = E2F1 induction; format: cell-based, human; parameters: key: “+” symbol represents overexpression of E2F1 relative to a control
[3] = tested on: HT-29 human colon cancer cells; assay: Human colon cancer xenograft model; format: in vivo, mice
Protocol: (§4) The animals were randomized into three groups. […] Mean tumor volume was then analyzed.

[4] = tested on: human Panc-1 pancreatic cancer cells; format: in vivo, mice
Protocol: as §4

[5] = tested on: human breast cancer cells (MCF-7); assay: Colony formation assay, cancer vs normal breast cells; format: cell-based; details: MCF-7, 4 h treatment
Text: (§5) After 10-20 days, cells were fixed and stained with modified Wright-Giemsa stain.

[6] = tested on: normal breast epithelial cells (MCF-10A); assay: as above; format: cell-based, human; details: 4 h treatment
Text: as §5

PC-3 = details: human, 4 h
Protocol: (§6) Control plates received the same volume of DMSO alone. After a 4 hour exposure the drug was carefully removed, and drug-free medium could be added. […] Colonies of greater than 50 cells were scored as survivors. Cells were maintained at 37° C. in 5% CO2 in complete humidity.

DU-145 = details: human, 4 h
Protocol: as §6

SK-OV-3 = details: human, 4 h
Protocol: as §6

MCF-7 [7] = details: human, 4 h
Protocol: as §6

[8] = tested on: A549 human lung cancer cells; details: 60 mg/kg IP every three days, 8 treatments
Protocol: Athymic female nude mice (Ncr) were inoculated subcutaneously with 4×10^6 A549 human lung cancer cells, and the tumors were allowed to grow to 50 mm^3 in size. The animals were randomized into three groups of seven animals per group. […] Mean tumor volume was then analyzed.

HCT-116 = assay: cells; details: Homo sapiens, HCT-116, read-out: LC50 (Replicate Results), HCT-116, 4 hour exposure, colonies after 14-21 days
Protocol: as §6
Control plates received the same volume of DMSO alone. After a 4 hour exposure the drug was carefully removed, and drug-free medium was added. […] Colonies of greater than 50 cells were scored as survivors. Cells were maintained at 37° C. in 5% CO2 in complete humidity. Each “Replicate Result” represents the result of a separate experiment.

MCF-7 [9] = assay: cells; details: Homo sapiens, MCF7, read-out: LC50 (Replicate Results), MCF-7, 4 hour exposure, colonies after 14-21 days
Protocol: as §6

[10] = Study 3A: neuropharmacological profile in rats
Protocol: In Study No. 3A, four groups of ten male Sprague-Dawley rats were dosed with a single 1 hour intravenous infusion via the tail vein at doses of 0 (vehicle), 5, 25, and 60 mg/kg as shown in Table 12.
Following dosing, animals were placed in a fixed environment consisting of a Plexiglas square, fitted with a lid and placed on absorbent paper to detect excretions.
Body temperatures were taken on all animals at 15 minutes following dose administration.

[11] = Study 1A: repetitive weekly intravenous toxicity study in rats
[12] = Study 6B: two week intravenous repetitive dose toxicity study in rats; details: 45 mg/kg, one animal, Day 15
[13] = Study 1B: dose-range-finding single dose intravenous toxicity study in rats
Text: In Study No. 1B, five groups of six adult Sprague-Dawley rats (three male and three female) were randomized to treatment groups and treated via intravenous infusion as shown in
Other observations included clinical signs, body weights and food consumption. On Day 8, animals were anesthetized with CO2 and blood for testing was collected by cardiocentesis, then animals were euthanized by CO2 asphyxiation and subjected to gross necropsy with histopathological evaluation performed on major organs (lungs, heart, liver, brain, spleen and kidneys).

[14] = Pharmacokinetic profile of intraperitoneal dosing in mice, Lipiodol formulation; details: IP 150 mg/m^2 in Lipiodol
Protocol: A study was performed to determine the pharmacokinetic profile of intraperitoneal (IP) dosing in mice.

[15] = 40 mg/kg, by the end of the infusion

Question: Which fraction unbound at 4 h [1] does the source give for CC1(C)CCC2=C(O1)c1ccccc1C(=O)C2=O [β-lapachone, 3,4-dihydro-2,2-dimethyl-2H-naphtho [1,2-b]pyran-5,6-dione] here?
Answer: 0.07

Question: What about the “amount of free compound in human plasma” value (human plasma proteins) of the same molecule?
Answer: approximately 7%

Question: What about the “reduction of tidal volume” value ([2]; 20 mg/kg, at 60 minutes) of the same molecule?
Answer: 16%

Question: And the dynamic compliance ([2]; 40 mg/kg)?
Answer: approximately 52 % of normal

Question: And the “increase of pulmonary resistance” value ([2]; 40 mg/kg)?
Answer: approximately 50%

Question: What about the “decrease in tidal volume” value [2, 15] of the same molecule?
Answer: 41%

Question: And the respiratory rate [2, 15]?
Answer: four-fold increase

Question: And the “effects on cardiovascular function (BP, blood flow, heart rate, ECG incl. QTc)” value ([2]; up to and including 40 mg/kg over 1 hour)?
Answer: no significant effects on cardiovascular function

Question: What about the CC50 (BxPC-3; BXPC-3, read-out: LC50 (Replicate Results)) of the same molecule?
Answer: 1890 nM

Question: What about the CC50 (BxPC-3; BXPC-3, read-out: LC50 (Replicate Results), BxPC-3, 4 hour exposure, colonies after 14-21 days) of the same molecule?
Answer: 1890 nM

Question: What about the CC50 (PaCa-2; Homo sapiens, PaCa-2, read-out: LC50 (Replicate Results)) of the same molecule?
Answer: 1680 nM

Question: And the CC50 (PaCa-2; Homo sapiens, PaCa-2, read-out: LC50 (Replicate Results), PaCa-2, 4 hour exposure, colonies after 14-21 days)?
Answer: 1680 nM

Question: What about the CC50 (PaCa-2; human, 4 h) of the same molecule?
Answer: 1520 nM

Question: And the “E2F1 Induction” value (E2F1; Colon HT-29)?
Answer: +

Question: And the “E2F1 Induction” value (E2F1; Colon SW480)?
Answer: +

Question: What about the “E2F1 Induction” value (E2F1; Pancreas PANC1) of the same molecule?
Answer: +

Question: What about the “reduction of mean tumor volume” value ([3]; 60 mg/kg IP every three days, 10 treatments) of the same molecule?
Answer: approximately 75%

Question: And the toxicity ([3]; mouse, in vivo)?
Answer: No sign of significant toxicity

Question: And the mean tumor volume ([4]; 40 and 60 mg/kg IP every three days, 5 treatments)?
Answer: reduced the mean tumor volume

Question: What about the toxicity ([4]; mouse, in vivo) of the same molecule?
Answer: No sign of significant toxicity

Question: What about the “concentrations giving essentially complete elimination of colonies” value [5] of the same molecule?
Answer: ≥ 24 µM

Question: What about the number of colonies [6] of the same molecule?
Answer: no reduction in the number of colonies

Question: What about the CC50 (PC-3) of the same molecule?
Answer: 2340 nM

Question: What about the CC50 (DU-145) of the same molecule?
Answer: 1210 nM

Question: And the CC50 (SK-OV-3)?
Answer: 1290 nM

Question: And the CC50 (MCF-7 [7])?
Answer: 1560 nM

Question: What about the “reduction of mean tumor volume” value [8] of the same molecule?
Answer: approximately 50%

Question: What about the CC50 (HCT-116) of the same molecule?
Answer: 2290 nM

Question: And the CC50 (MCF-7 [9])?
Answer: 1450 nM

Question: What about the “animals that died during the infusion” value ([10]; 60 mg/kg at 6 mg/ml) of the same molecule?
Answer: Five of the ten animals

Question: What about the mean body temperature ([10]; 60 mg/kg, 15-minutes post dosing) of the same molecule?
Answer: 34.6 °C

Question: And the NOEL ([10]; single intravenous dose, male Sprague Dawley rats)?
Answer: 25 mg/kg

Question: And the NOEL ([11]; Study 1A)?
Answer: 10 mg/kg/dose

Question: And the “bilirubin (slight increase)” value ([11]; high dose animals, Days 2 and 23, ULN 0.27 mg/dl)?
Answer: 0.33 mg/dL

Question: What about the decrease in hemoglobin ([11]; mid- and high-dose animals, normalized by Day 37) of the same molecule?
Answer: < 2 g/dL

Question: What about the total bilirubin ([12]; ULN 0.27) of the same molecule?
Answer: 0.46 mg/dL

Question: What about the blood urea nitrogen ([12]; ULN 19) of the same molecule?
Answer: 40 mg/dL

Question: And the creatinine phosphokinase ([12]; ULN 513)?
Answer: 553 IU/L

Question: What about the clinical signs ([13]; 60 mg/kg, 1-2 hours after dosing, resolved by Day 2) of the same molecule?
Answer: transient clinical signs

Question: What about the histopathological findings ([13]; 75 mg/kg group) of the same molecule?
Answer: Minimal to mild hepatocellular vacuolation and renal tubular epithelial pallor and attenuation

Question: And the “mortality and clinical signs” value ([13]; 30 or 45 mg/kg dose groups)?
Answer: No mortality or clinical signs of toxicity

Question: And the “hematology and serum chemistry values” ([13]; all groups)?
Answer: generally unremarkable

Question: What about the NOEL ([13]; single one-hour intravenous dose at 3 mg/ml, male and female rats) of the same molecule?
Answer: 45 mg/kg

Question: What about the peak plasma level [14] of the same molecule?
Answer: approximately 8 μM

Question: And the “time at which peak plasma levels were achieved” value [14]?
Answer: within one-half hour
